The values below come from patent US20230137216A1, “Stabilization of Pharmaceutical Compositions Comprising Polysorbate” (LEK Pharmaceuticals d.d., priority 2020, published 2023).

“Also recorded” adds a separate entry of the source.

Data set [1] is described as follows: Accelerated stability testing of PS20 (polysorbate content by mixed-mode chromatography with CAD). The protocol:
(§1) PS20 or PS80 obtained from different manufacturers (see Table 1) was dissolved in 20 mM aqueous buffer at pH 5.5 or 6.5 in a glass vial to a final concentration of 0.02% (w/v) polysorbate. The buffer salts used in the histidine buffers investigated were histidine chloride (HisCl) and various further histidine buffer salts (see below, all obtained from Sigma-Aldrich (now Merck KgaA)).
(§2) Degradation mechanisms of the polysorbates were explored using 20 mM imidazole chloride and 20 mM alanine chloride buffer salts. Also, HisCl buffer salt comprising solutions were prepared with the additional excipients of mannitol or trehalose (both Sigma-Aldrich) to determine the influence of sugars and their derivatives on polysorbate degradation. Finally, two different mAbs were used as the active agent that each contained 10 mg/mL mAb, 0.02% PS80 HX2 and 20 mM HisCl buffer salt at pH 6.5. The therapeutic protein solutions were provided by Lek d.d. (Mengeš, Slovenia). In all cases, the starting point samples were collected immediately and stored at −80° C. The vials were then placed into a 50° C. incubator for up to 2 months, with samples collected at 1 month and further samples in some cases at 2 months. All of these samples were stored at −80° C. for subsequent analysis.
(§3) The polysorbate contents were analysed and quantified using a method based on mixed-mode chromatography, as mixed anion exchange and reversed phase, combined with a charged aerosol detector (CAD). The external standard approach was used for quantification of the surfactants. Chromatographic analysis was carried out using the method of Hewitt et al. (Hewitt, D. et al. J. Chromatogr. A 1218, 2138-2145 (2011).
(§4) Analytes were separated using a Waters Oasis MAX column (30 μm particle size, 2.1 mm×20 mm), column temperature 30° C., flow rate 1 ml/min and a total run time of 10 min. The injection volume was 10 μL. Initial conditions were set at 90% solvent A (2% formic acid in purified water) and 10% solvent B (2% formic acid in isopropanol). Solvent B was increased to 20% in the first minute and held for 2.4 min. POE sorbitan esters were eluted using a step gradient of 20% to 100% B over 0.1 min, followed by an equilibration step of 10% B for 0.9 min.

A short description of data set [2]: Accelerated stability testing of PS80 HX2 (polysorbate content by mixed-mode chromatography with CAD). Particulars: for degradation of PS80 HX2 in the presence of mAb1 / degradation of PS80 HX2 in the presence of mAb2: pH 6.5; for degradation of polysorbate 80 HX2: 0.02% w/v PS80 HX2, 20 mM histidine buffer salt, pH 6.5, 50° C. As to the method: as §1, §2, §3, §4

The nature of data set [3]: Accelerated stability testing of PS80 (polysorbate content by mixed-mode chromatography with CAD). The protocol: as §1, §2, §3, §4
The conditions of data set [4]: as reported in prior work; cited from earlier work.
Setting [5] is: 0.02% w/v PS20, 20 mM histidine chloride, pH 6.5, 50° C., 1 month.
Setting [6] is: 0.02% w/v PS80, 20 mM histidine chloride, pH 6.5, 50° C., 1 month.

Regarding `N[C@@H](Cc1c[nH]cn1)C(=O)O.O=C(O)CC(O)C(=O)O` [histidine malate], the “degradation of PS20 (Merck)” value in data set [1] (pH 5.5) was “significantly less degradation”. Moreover, in data set [2], the “degradation of PS80 HX2 in the presence of mAb1” value is on record as “no significant degradation” and the “degradation of PS80 HX2 in the presence of mAb2” value is given as “no significant degradation”. The “degradation of PS80 (Merck)” value in data set [3] (pH 5.5) is “significantly less degradation”.

For histidine chloride [reference compound], in data set [1] (pH 5.5), the “degradation of PS20” value was “severe degradation” and the “degradation of PS20 (Merck)” value is “showed degradation”. For the same molecule, in data set [2], the “degradation of PS80 HX2 in the presence of mAb1” value was “significant degradation” and the “degradation of PS80 HX2 in the presence of mAb2” value is recorded as “significant degradation”. Further, in data set [3] (pH 5.5), the “degradation of PS80” value is on record as “severe degradation” and the “degradation of PS80 (Merck)” value was “showed degradation”.

As for `OC[C@@H](O)[C@@H](O)[C@H](O)[C@H](O)CO` [mannitol], the “effect of added excipient on degradation of PS20” value (shortened to “effect … of PS20”) in data set [1] (pH 6.5) is listed as “did not slow down the degradation”. Further, in data set [3] (pH 6.5), the “effect of added excipient on degradation of PS80” value (“effect … of PS80” for short) is “did not slow down the degradation”.

Take `OC[C@H]1O[C@H](O[C@H]2O[C@H](CO)[C@@H](O)[C@H](O)[C@H]2O)[C@H](O)[C@@H](O)[C@@H]1O` [trehalose]: the “effect … of PS20” value in data set [1] (pH 6.5) was “did not slow down the degradation”. The “effect … of PS80” value in data set [3] (pH 6.5) is “did not slow down the degradation”.

As for histidine glutarate, in data set [2] (1 month), the “degradation of polysorbate 80 HX2” value is reported as “major to almost complete degradation”.

Regarding `N[C@@H](Cc1cnc[nH]1)C(=O)O.O=C(O)CCC(=O)C(=O)O` [histidine α-ketoglutarate], in data set [2] (1 month), the “degradation of polysorbate 80 HX2” value is listed as “major to almost complete degradation”.

Consider alanine chloride, for which the “degradation of PS80 HX2” value in data set [2] (pH 5) is on record as “no degradation”.

With `O=C(O)CN(CCN(CC(=O)O)CC(=O)O)CC(=O)O` [EDTA], in data set [1] (setting [5]), the “effect … of PS20” value is listed as “did not slow down the degradation”. In data set [3] (setting [6]), the “effect … of PS80” value is given as “did not slow down the degradation”.

Consider `CC(=O)O.N[C@@H](Cc1c[nH]cn1)C(=O)O` [histidine acetate], for which the “oxidative degradation in buffer system of histidine and histidine acetate” value in data set [4] is recorded as “promoted oxidative degradation”.

In the case of `[Cl-].[Na+]` [NaCl], the “effect … of PS20” value in data set [1] (setting [5]) was “did not slow down the degradation”. Also, in data set [3] (setting [6]), the “effect … of PS80” value is “did not slow down the degradation”.

Take “polyoxyethylene (20) sorbitan monooleate [PS80]”: in data set [3] (pH 5.5), the “rate of degradation compared with PS20 samples from the same manufacturer” value is on record as “generally degrading faster”.

Consider `Cl.c1c[nH]cn1` [imidazole chloride], for which, in data set [2] (0.02% w/v PS80 HX2, 20 mM buffer salt, AlaCl pH 5.0 or 6.0, ImiCl pH 5.0, 6.5 or 7.0, 50° C., 1 month), the “degradation of PS80 HX2” value is “degraded almost entirely; also recorded: Polysorbate degradation was detected”.
